Tests used:
[1] = log P determination by HPLC on reverse-phase column (EEC directive 79/831 Annex V.A8); type: physicochemical; conditions: reverse-phase C18 HPLC column, acidic range (pH 2.3), 0.1% aqueous phosphoric acid/acetonitrile, 43° C.
Protocol: The log P values given in the table were determined in accordance with EEC directive 79/831 Annex V.A8 by HPLC (High Performance Liquid Chromatography) on a reverse-phase column (C 18). Temperature: 43° C. (a) Mobile phases for the determination in the acidic range (pH 2.3): 0.1% aqueous phosphoric acid, acetonitrile; linear gradient from 10% acetonitrile to 90% acetonitrile—the corresponding measurement results in table 1 are marked a). Calibration was carried out using unbranched alkan-2-ones (having 3 to 16 carbon atoms) with known log P values (determination of the log P values by the retention times using linear inter-polation between two successive alkanones).

[2] = test system: larvae of the mustard beetle (Phaedon cochleariae); experiment: Phaedon test (spray treatment); type: in vivo; conditions: 500 g/ha, spray treatment of Chinese cabbage disks
Protocol: (§1) To produce a suitable preparation of active compound, 1 part by weight of active compound is mixed with the stated amounts of solvents and emulsifier, and the concentrate is diluted with emulsifier-containing water to the desired concentration. Disks of Chinese cabbage (Brassica pekinensis) are sprayed with a preparation of active compound of the desired concentration and, after drying, populated with larvae of the mustard beetle (Phaedon cochleariae). After the desired period of time, the effect in % is determined. 100% means that all beetle larvae have been killed; 0% means that none of the beetle larvae have been killed.

[3] = test system: caterpillars of the armyworm (Spodoptera frugiperda); experiment: Spodoptera frugiperda test (spray treatment); type: in vivo; conditions: 500 g/ha, spray treatment of corn leaf disks
Protocol: as §1, with “corn leaves (Zea mays)” for “Chinese cabbage (Brassica pekinensis)”, “caterpillars” for “larvae”, “armyworm (Spodoptera frugiperda).” for “mustard beetle (Phaedon cochleariae).”, “caterpillars” for “beetle larvae”

chromatographic logP [1] | Compound | Kill rate in % after 7 d [2] | Kill rate in % after 7 d [3]
1.68 | COC(=O)c1cnncc1C(F)(F)F [methyl 5-trifluoromethylpyridazine-4-carboxylate] |  | 
0.6 | N#CCNC(=O)c1cnncc1C(F)(F)F [Example 1, N-cyanomethyl-5-trifluoromethylpyridazine-4-carboxamide] |  | 
 | O=C(NC(c1ccccc1)c1ccccn1)c1cnncc1C(F)(F)F (stereo not shown) [Ia-59] | 100% | 100%
